{
  "source": "patent US8183005B1",
  "about": "“Pharmaceutical agents for treating HCV infections” (priority 2004, dated 2012)",
  "key": {"NS3, NS5A, and NS5B": {"system": "NS3, NS5A, and NS5B", "test": "Western blotting of NS3, NS5A and NS5B in replicon cells", "format": "cell-based, HCV", "details": "100 nM, 48 hours and 96 hours", "protocol": "Replicon cells were treated with 100 nM of the compound represented by formula (II) for the lengths of time indicated in FIG. 11 (48 hours and 96 hours). Western blot analysis was performed using a method similar to that of Example 5."}, "[1]": {"system": "de novo syntheses of ceramide and sphingomyelin", "test": "De novo syntheses of ceramide and sphingomyelin, [14C]serine labeling", "format": "cell-based", "details": "HCV replicon cells, 48 hours treatment, [14C]serine three hours", "protocol": "HCV replicon cells were treated for 48 hours with the compound represented by formula (II) at the concentrations indicated in FIG. 13. The cells were then labeled for three hours with [14C]serine. After extraction with chloroform/methanol (1:2, v/v), de novo synthesized ceramide (FIG. 13A) and sphingomyelin (FIG. 13B) were separated by thin layer chromatography."}, "HCV-NS3 protein": {"system": "HCV-NS3 protein", "test": "Immunostaining of HCV-NS3 protein in HCV replicon cells", "format": "cell-based", "details": "100 nM, 96 hours", "protocol": "HCV replicon cells were treated with 100 nM of the compound represented by formula (II) for 96 hours, and then the cells were fixed in 3.7% formaldehyde. Blocking with 3% BSA was followed by incubation with an NS3 antibody (provided by F. Hoffman-La Roche), and then the washed cells were incubated with a Texas-Red-labeled rabbit IgG (Molecular probe), and analyzed using a fluorescence microscope (FIG. 10)."}, "[2]": {"system": "raft proteins (NS5B, NS5A, caveolin-2)", "test": "Effect on raft proteins, sucrose density gradient fractionation, Western blot or ELISA", "format": "cell-based", "details": "72 hours", "protocol": "1 mM of the compound represented by formula (II) was added to the HCV replicon cells, then 72 hours later the cell extract was treated for one hour with a solubilizer, 1% Nonidet P-40 (Nacalai tesque, Cat. No. 252-23). Fractions 1 to 9 were separated by the sucrose density gradient fractionation method, and Western blot analysis was performed using a method similar to that of Example 5. […] Caveolin-2 expression was confirmed using a caveolin-2 antibody (BD Transduction, Cat. No 610684).\n1 μM of the compound represented by formula (II) was added to the HCV replicon cells, then 72 hours later the cell extract was treated for one hour with 1% NP-40. Raft proteins (solubilizer-resistant) and non-raft proteins were separated using the sucrose density gradient fractionation method, diluted with PBS, concentrated, and then quantified by ELISA analysis."}, "in vitro": {"test": "in vitro", "format": "cell-based", "details": "human", "protocol": "Firefly luciferase HCV replicon cells (Huh-3-1) suspended in Dulbecco's MEM (Gibco Cat. No. 10569) containing 5% fetal bovine serum (Hyclone Cat. No. SH30071.03) were plated onto a 96-well plate at 5000 cells/well, and cultured overnight under 5% CO2 at 37° C. Approximately 20 hours later, fumonisin B1 was added to a final concentration of 1.37 μM to 1000 μM by carrying out a sequential three-fold dilution, and the cells were then cultured for three more days. The assay was carried out by preparing two types of assay plates: one an opaque white plate and the other a transparent plate. After culturing, the white plate was subjected to the Steady-Glo Luciferase Assay System (Promega Cat. No. E2520). More specifically, 100 μL of reagent was added to each well, mixed three to four times using a pipette, and then stood for five minutes before luminescence was measured using 1450 MicroBeta TRILUX (WALLAC). IC50 (50% inhibitory concentration) of a pharmaceutical agent was calculated by subtracting the value obtained without adding the cells as the background value from all of the values, and then defining the level of inhibition without addition of the pharmaceutical agent as 0%. A Cell Counting Kit-8 (DOJINDO Laboratories, Cat. No. 341-07761) was used for the cytotoxicity assays. 10 μL of reagent was added to each well, mixed three to four times using a pipette, and then stood for approximately 30 minutes; measurements were performed when OD450 nm reached approximately 1.0. IC50 (50% inhibitory concentration) of a pharmaceutical agent was calculated by subtracting the value obtained without adding the cells as the background value from all of the values, and then defining the level of inhibition without addition of the pharmaceutical agent as 0%.\nBased on the results of Example 5, the following method was used to measure the effect on cytotoxicity and HCV replicon activity under conditions in which Huh-3-1 cells show reduced LCB1 expression. More specifically, cells were plated onto a 96-well plate at 3500 cells per well, and cultured overnight under 5% CO2 at 37° C. 1.75 μL of 2 μM siRNA was added to 23.3 μL of ECR buffer (buffer included in the RNAiFect Kit), this was stirred vigorously, and then 0.31 μL of RNAiFect transfection reagent was added. This was stirred gently at room temperature and then allowed to stand for ten minutes. siRNA was added to a final concentration of 35 nM, and this was cultured for four days. The effect on cytotoxicity was determined by adding 10 μL of Cell Counting Kit-8 (DOJINDO Laboratories Cat. No. 341-07761) to the medium, mixing three to four times using a pipette, and then allowing this to stand for one hour at 37° C. Absorbance was then measured at 450 nm using a microplate reader Emax (Molecular Devices). After incubation, the medium was exchanged for fresh medium, and the plate was subjected to the Steady-Glo Luciferase Assay System (Promega Cat. No. E2520). 100 μL of reagent was added to each well, mixed three to four times using a pipette, and then allowed to stand for five minutes. Luminescence was then measured using 1450 MicroBeta TRILUX (WALLAC) to determine the HCV replicon activity. IC50 (50% inhibitory concentration) of a pharmaceutical agent was calculated by subtracting the value obtained without adding the cells as the background value from all of the values, and then defining the level of inhibition without addition of the pharmaceutical agent as 0%.\nA Cell Counting Kit-8 (DOJINDO Laboratories, Cat. No. 341-07761) was used for the cytotoxicity assays. More specifically, 10 μL of Cell Counting Kit-8 was added to the transparent plate, and this was warmed at 37° C. for 30 to 60 minutes. Using a 96-well plate reader, absorbance was measured at a wavelength of 450 nm with a reference wavelength of 630 nm. […]"}, "HCV replication": {"system": "HCV replication", "test": "Recovery from replication inhibition by C2-ceramide, Western blot", "format": "cell-based", "details": "C2-ceramide added at the same time, 96 hours", "protocol": "To elucidate whether the inhibitory activity of the compound represented by formula (II) against the HCV replicon is dependent on the sphingolipid biosynthetic pathway, cell-permeable ceramide, C2-ceramide (Sigma, Cat. No. A7191), was added to HCV replicon cells at the same time as the compound represented by formula (II), and these were cultured for 96 hours. These cell extracts were used to perform Western blot analysis using a method similar to that of Example 5."}},
  "note": "Where two headings read alike, the source gives them in different places.",
  "data": [
    {"smiles": "CCCCCCCC(=O)CCCCCC/C=C/[C@H](C(=O)N[C@@H](Cc1ccc(OCC=C(C)C)cc1)C(=O)O)[C@@](O)(CC(=O)O)C(=O)O", "note": "[Compound (40)]", "values": [
      {"measurement": "expression levels of NS3, NS5A and NS5B", "setting": "NS3, NS5A, and NS5B", "result": "reduced"},
      {"measurement": "intracellular de novo synthesis of ceramide", "setting": "[1]", "result": "inhibited"},
      {"measurement": "intracellular de novo synthesis of sphingomyelin", "setting": "[1]", "result": "inhibited"},
      {"measurement": "HCV-NS3 protein around the nucleus (immunostaining)", "setting": "HCV-NS3 protein", "result": "disappeared"},
      {"measurement": "dissociation of NS5B from the raft", "setting": "[2]; 1 μM, 1% NP-40, ELISA", "result": "significant dissociation of NS5B from the raft"},
      {"measurement": "effect on NS5A and caveolin-2", "setting": "[2]; 1 mM, 1% Nonidet P-40, Western blot", "result": "could not be confirmed"},
      {"measurement": "CC50", "setting": "in vitro; HCV replicon cells, FIG. 9, read-out: cytotoxicity CC50", "result": "> 50", "unit": "nM"},
      {"measurement": "CC50", "setting": "in vitro; Huh-3-1 replicon cells, three days, Cell Counting Kit-8, read-out: Cytotoxicity CC50", "result": "> 5000", "unit": "nM"},
      {"measurement": "inhibition of HCV replication in presence of C2-ceramide", "setting": "HCV replication", "result": "suppressed in a manner dependent on C2-ceramide concentration"}
    ]}
  ]
}
